Test results published in ChEMBL document CHEMBL5137115, “Insights into the Metabolomic Capacity of Podaxis and Isolation of Podaxisterols A-D, Ergosterol Derivatives Carrying Nitrosyl Cyanide-Derived Modifications” (J Nat Prod, 2022).
Activity calls are given as the source filed them.

Key:
Format in all cases: functional, organism-based
Staphylococcus aureus [1] = test: Antimicrobial activity against Staphylococcus aureus 134/94 assessed as inhibition zone at 0.5 mg/ml by […]
Enterococcus faecalis = test: Antimicrobial activity against Enterococcus faecalis 1528 assessed as inhibition zone at 0.5 mg/ml by […]
Mycolicibacterium vaccae = test: Antimicrobial activity against Mycobacterium vaccae 10670 assessed as inhibition zone at 0.5 mg/ml by […]
Bacillus subtilis = test: Antimicrobial activity against Bacillus subtilis 6633 assessed as inhibition zone at 0.5 mg/ml by […]
Staphylococcus aureus [2] = test: Antimicrobial activity against Staphylococcus aureus SG511 assessed as inhibition zone at 0.5 mg/ml by […]

Measured: Activity

CC(C)[C@@H](C)/C=C/[C@@H](C)[C@H]1CC[C@H]2C3=CC=C4C[C@@H](O)CC[C@]4(C)[C@H]3CC[C@]12C
active: all assays above
